We go through 10 compounds from ChEMBL document CHEMBL6182887, “Chemical modification of monensin as a source of potent antiplasmodial agents” (Bioorg Med Chem, 2025).

For data set [1], the system named is Plasmodium berghei. In words: Antiplasmodial activity against hepatic stage luciferase-expressing Plasmodium berghei sporozoites infected in human Huh-7 cells assessed as reduction in parasite burden preincubated for 1 hrs followed by infection and measured after 46 hrs by […]. It counts as functional, organism-based. (The colour change of resazurin is a common sign of viable cells or microbes.)

The nature of data set [2]: Cytotoxicity against human Huh-7 cells assessed as reduction in cell viability incubated for 46 hrs by AlamarBlue dye based fluorescence analysis. It is filed as toxicity.
A short description of data set [3]: Selectivity index, ratio of CC50 for cytotoxicity against human Huh-7 cells to IC50 for antiplasmodial activity against hepatic stage luciferase-expressing Plasmodium berghei sporozoites infected in human Huh-7 cells. The following applies: read-out: Ratio CC50/IC50. It is filed as toxicity, cell-based.
The next data set relates to Plasmodium falciparum. In words: Antiplasmodial activity against Plasmodium falciparum. It counts as functional, organism-based.
For data set [4], the system named is Plasmodium berghei. In words: Potency index, ratio of monensin IC50 to test compound IC50 for antiplasmodial activity against hepatic stage luciferase-expressing Plasmodium berghei sporozoites infected in human Huh-7 cells assessed as reduction in parasite burden preincubated for 1 hrs followed by infection and measured after 46 hrs by […]. It counts as functional. The following applies: time 47 hrs.

As a reminder, the IC50 is the midpoint of a concentration-inhibition curve. What is called CC50 is the concentration at which the toxic effect on the cells reaches its halfway point.

Regarding `CC[C@@]1([C@@H]2O[C@@H]([C@H]3O[C@@](O)(CO)[C@H](C)C[C@@H]3C)C[C@@H]2C)CC[C@H]([C@]2(C)CC[C@]3(C[C@H](O)[C@@H](C)[C@@H]([C@@H](C)[C@@H](OC)[C@H](C)C(=O)OCCCC[P+](c4ccccc4)(c4ccccc4)c4ccccc4)O3)O2)O1`, the IC50 in the data set on Plasmodium berghei [1] worked out at 623 nM. Further, the CC50 at 46 h in data set [2] is 5800 nM. Moreover, the selectivity ratio in data set [3] was determined as 9.3.
Compound `CC[C@@]1([C@@H]2O[C@@H]([C@H]3O[C@@](O)(COS(=O)(=O)c4ccc(C)cc4)[C@H](C)C[C@@H]3C)C[C@@H]2C)CC[C@H]([C@]2(C)CC[C@]3(C[C@H](O)[C@@H](C)[C@@H]([C@@H](C)[C@@H](OC)[C@H](C)C(=O)O)O3)O2)O1` had an IC50 with Plasmodium falciparum of 1.52 nM.
On to `CC[C@@]1([C@@H]2O[C@@H]([C@H]3O[C@@](O)(COC(=O)Nc4ccccc4)[C@H](C)C[C@@H]3C)C[C@@H]2C)CC[C@H]([C@]2(C)CC[C@]3(C[C@H](O)[C@@H](C)[C@@H]([C@@H](C)[C@@H](OC)[C@H](C)C(=O)O)O3)O2)O1`, for which the IC50 with Plasmodium berghei [1] came to 0.7 nM. Moreover, the “Ratio IC50” value with Plasmodium berghei [4] is recorded as about 8. In data set [2], the 50% cytotoxic concentration (CC50) at 46 h was 3100 nM. Moreover, the selectivity ratio in data set [3] turned out to be 4430.
Regarding `CC[C@@]1([C@@H]2O[C@@H]([C@H]3O[C@@](O)(CNC(=O)c4ccccc4)[C@H](C)C[C@@H]3C)C[C@@H]2C)CC[C@H]([C@]2(C)CC[C@]3(C[C@H](O)[C@@H](C)[C@@H]([C@@H](C)[C@@H](OC)[C@H](C)C(=O)O)O3)O2)O1`, the 50% inhibitory concentration (IC50) in the data set with Plasmodium berghei [1] was found to be 6.4 nM. In addition, the CC50 at 46 h in data set [2] worked out at 8400 nM. Further, the selectivity ratio in data set [3] was determined as 1310.
Take `CC[C@@]1([C@@H]2O[C@@H]([C@H]3O[C@@](O)(CNC(=O)Nc4ccccc4)[C@H](C)C[C@@H]3C)C[C@@H]2C)CC[C@H]([C@]2(C)CC[C@]3(C[C@H](O)[C@@H](C)[C@@H]([C@@H](C)[C@@H](OC)[C@H](C)C(=O)O)O3)O2)O1`: the concentration for half-maximal inhibition (IC50) with Plasmodium berghei [1] stood at 2.9 nM. Also, the CC50 at 46 h in data set [2] was found to be 4200 nM. Besides, the selectivity ratio in data set [3] was 1450.
Take `CC[C@@]1([C@@H]2O[C@@H]([C@H]3O[C@@](O)(CNC(=O)CCC[P+](c4ccccc4)(c4ccccc4)c4ccccc4)[C@H](C)C[C@@H]3C)C[C@@H]2C)CC[C@H]([C@]2(C)CC[C@]3(C[C@H](O)[C@@H](C)[C@@H]([C@@H](C)[C@@H](OC)[C@H](C)C(=O)O)O3)O2)O1`: in the data set with Plasmodium berghei [1], the IC50 came to 1490 nM. The half-maximal cytotoxic concentration (CC50) at 46 h in data set [2] came to 75300 nM. In addition, the selectivity ratio in data set [3] came out at 50.6.
As to `CC[C@@]1([C@@H]2O[C@@H]([C@H]3O[C@@](O)(CO)[C@H](C)C[C@@H]3C)C[C@@H]2C)CC[C@H]([C@]2(C)CC[C@]3(C[C@H](O)[C@@H](C)[C@@H]([C@@H](C)[C@@H](OC)[C@H](C)C(=O)OCc4ccccc4)O3)O2)O1`, the 50% inhibitory concentration (IC50) with Plasmodium berghei [1] amounted to 81.6 nM. Besides, the CC50 at 46 h in data set [2] stood at 31300 nM. Also, the selectivity ratio in data set [3] stood at 384.
Compound `CC[C@@]1([C@@H]2O[C@@H]([C@H]3O[C@@]4(COC(=O)O4)[C@H](C)C[C@@H]3C)C[C@@H]2C)CC[C@H]([C@]2(C)CC[C@]3(C[C@H](O)[C@@H](C)[C@@H]([C@@H](C)[C@@H](OC)[C@H](C)C(=O)O)O3)O2)O1` had an IC50 in the data set with Plasmodium falciparum of 1.08 nM.
For the compound `CC[C@@]1([C@@H]2O[C@@H]([C@H]3O[C@@](O)(CO)[C@H](C)C[C@@H]3C)C[C@@H]2C)CC[C@H]([C@]2(C)CC[C@]3(C[C@H](O)[C@@H](C)[C@@H]([C@@H](C)[C@@H](OC)[C@H](C)C(=O)O)O3)O2)O1` [MONENSIN], the 50% inhibitory concentration (IC50) with Plasmodium berghei [1] stood at 5.5 nM; in the data set with Plasmodium falciparum, 2.46 nM. Besides, the CC50 at 46 h in data set [2] is 17500 nM. For the same compound, the selectivity ratio in data set [3] stood at 3180.
For `COc1cc(NC(C)CCCN)c2ncccc2c1` (configuration not stated) [PRIMAQUINE], the CC50 at 46 h in data set [2] is 139000 nM. Also, the selectivity ratio in data set [3] was 16.4.
